Measurements published in PMC3228891 (Journal of medicinal chemistry, 2011).

How the values were obtained:
H1 receptor = details: read-out: Ki H1 receptor (ChEMBLdb); known activity in ChEMBLdb ref 28; cited from earlier work
hH1R = hH1R (Homo sapiens, UniProt P35367); assay: Inositol phosphate; format: cell-based; details: for functional character in histamine stimulated InsP accumulation assays: HEK293T cells transiently transfected with hH1R
Human H3R = Human H3R (Homo sapiens, UniProt Q9Y5N1); assay: Radioligand displacement assay, [3H]-N-α-methylhistamine binding
Chain of Human H3R (Q9Y5N1 whole entry): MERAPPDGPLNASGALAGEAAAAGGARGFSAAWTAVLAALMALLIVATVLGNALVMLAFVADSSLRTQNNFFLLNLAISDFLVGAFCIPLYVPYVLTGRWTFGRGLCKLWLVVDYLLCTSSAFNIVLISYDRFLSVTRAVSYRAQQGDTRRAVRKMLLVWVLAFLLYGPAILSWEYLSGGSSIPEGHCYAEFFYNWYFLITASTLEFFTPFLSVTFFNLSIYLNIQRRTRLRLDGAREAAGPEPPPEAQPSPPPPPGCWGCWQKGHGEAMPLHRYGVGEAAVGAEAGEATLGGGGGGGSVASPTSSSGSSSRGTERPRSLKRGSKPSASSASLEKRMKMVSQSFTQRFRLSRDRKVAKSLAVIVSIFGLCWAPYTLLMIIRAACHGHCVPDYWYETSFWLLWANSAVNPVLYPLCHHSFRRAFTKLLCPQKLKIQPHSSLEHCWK

human H1R = human H1R (Homo sapiens, UniProt P35367); assay: Radioligand displacement assay, [3H]-mepyramine binding; details: displacement of [3H]-mepyramine, membranes of HEK293T cells transiently expressing human H1R; mean ± SEM, at least three independent measurements
Chain of human H1R (P35367 whole entry): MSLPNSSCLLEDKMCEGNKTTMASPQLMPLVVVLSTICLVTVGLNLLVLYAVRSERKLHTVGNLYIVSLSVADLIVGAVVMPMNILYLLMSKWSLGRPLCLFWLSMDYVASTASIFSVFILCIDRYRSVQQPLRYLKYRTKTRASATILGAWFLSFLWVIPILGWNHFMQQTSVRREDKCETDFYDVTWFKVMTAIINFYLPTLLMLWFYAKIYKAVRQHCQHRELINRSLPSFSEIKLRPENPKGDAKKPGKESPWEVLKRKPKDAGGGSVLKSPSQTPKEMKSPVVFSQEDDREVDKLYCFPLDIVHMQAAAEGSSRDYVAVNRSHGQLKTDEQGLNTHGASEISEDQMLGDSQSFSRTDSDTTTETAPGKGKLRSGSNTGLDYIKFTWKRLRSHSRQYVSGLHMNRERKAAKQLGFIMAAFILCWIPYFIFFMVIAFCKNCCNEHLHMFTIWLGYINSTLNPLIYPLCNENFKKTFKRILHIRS

Chain of hH1R (P35367 whole entry): as above

SMILES	Ki (H1 receptor)	functional character in histamine stimulated InsP accumulation assays (hH1R)	also measured
Cc1ccc(/C(=C\CN2CCCC2)c2ccccn2)cc1 [Triprolidine]	≤ 10 µM	–	–
c1cnc2c(c1)cc([C@@H]1CCCO1)n2CCN1CCCCC1 [compound 10]	–	inverse agonists	H3R affinity (Human H3R): without H3R affinity
c1ccc2c(c1)nc1n(CCN3CCCCC3)cnn21 [compound 13]	–	inverse agonists	–
NC1=NCC2c3ccccc3Cc3ccccc3N12 (stereo not drawn) [Epinastine]	≤ 10 µM	–	–
c1ccc2c(c1)n(CCN1CCCCC1)c1ncnn21 [compound 15]	–	inverse agonists	H3R affinity (Human H3R): without H3R affinity
CN(C)CCCN1c2ccccc2CCc2ccccc21 [Imipramine]	≤ 10 µM	–	–
CN1CCN(c2nc(N3CCCC3)c3cnn(C)c3n2)CC1 [compound 4]	–	–	pKi H1R (human H1R): 7.21 ± 0.03
CNCCCOc1cccc2ccccc12 [compound 9]	–	very weak partial agonist	intrinsic activity (hH1R; InsP accumulation, HEK293T hH1R): 0.07
c1ccc(Cc2ccccc2OC2CCNCC2)cc1 [compound 3]	–	–	inhibition of histamine-induced effects (hH1R; tested against histamine (0.1 μM), InsP accumulation): completely inhibit
